Laboratory results reported in patent publication US20130165508A1, “METHODS AND FORMULATIONS FOR TREATING INEFFECTIVE OR DECREASED ESOPHAGAL MOTILITY” (priority 2007, published 2013).

Legend:
muscarinic M2 receptors = biological target: T1, muscarinic M2 receptors (Homo sapiens, UniProt P08172); conditions: cited from earlier work
T1 sequence (P08172 1-466): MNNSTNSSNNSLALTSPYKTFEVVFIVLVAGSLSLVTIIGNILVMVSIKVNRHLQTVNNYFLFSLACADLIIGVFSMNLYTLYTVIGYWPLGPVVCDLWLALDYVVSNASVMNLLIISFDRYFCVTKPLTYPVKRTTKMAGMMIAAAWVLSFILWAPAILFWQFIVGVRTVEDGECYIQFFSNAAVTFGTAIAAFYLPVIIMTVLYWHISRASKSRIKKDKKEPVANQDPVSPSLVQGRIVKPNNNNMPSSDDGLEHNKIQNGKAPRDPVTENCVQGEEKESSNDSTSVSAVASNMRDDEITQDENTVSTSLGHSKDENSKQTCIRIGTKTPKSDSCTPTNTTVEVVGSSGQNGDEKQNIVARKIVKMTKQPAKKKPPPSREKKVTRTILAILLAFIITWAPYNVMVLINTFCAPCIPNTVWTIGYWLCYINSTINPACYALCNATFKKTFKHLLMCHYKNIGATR

[1] = Gastrointestinal absorption of oral bethanechol; type: in vivo; conditions: 50 mg oral dosage at about 22 percent absorption
Method: Thus, to achieve the beneficial effects of bethanechol on esophageal motility, systemic dosages in the range of 25-50 mg are required. Further, absorption of bethanechol at these dosage levels by the stomach and lower GI tract results in systemic distribution to other areas of the body such as the urinary tract and colon. A 50 mg oral dosage, for example, is believed to be about 22 percent absorbed in the stomach and intestines, which are rich in blood supply. This would result in a systemic level of about 11 mg of bethanechol. As described herein, however, bethanechol delivered locally to the pharynx and esophagus in a form that can more easily be absorbed by the mucosal lining of the pharynx and esophagus and delivered to the muscarinic receptors, principally the M2 receptors, can provide esophageal motility benefits, as well as increased salivation, while minimizing or avoiding systemic absorption and reducing or eliminating undesirable side effects. Enhancing the reduction or elimination of undesirable side effects is the fact that the esophagus has low vascularization, thus inhibiting the systemic absorption of bethanechol.

[2] = systemic dosing; cited from earlier work
acetylcholinesterase = acetylcholinesterase (Homo sapiens, UniProt P22303); conditions: cited from earlier work
[3] = cited from earlier work
[4] = tested on: patients with severe ineffective esophageal motility; conditions: 50 mg oral doses, after 15 and 40 minutes; cited from earlier work
[5] = cited from earlier work; remark: listed apart in the source
[6] = Expected absorption of bethanechol from ten 0.1 ml sprays with absorption enhancer; type: in vivo
Text: An exemplary method comprises treating ineffective esophageal motility while reducing or virtually eliminating an undesirable side effect, particularly a parasympathetic nervous system side effect, in a mammal in need of treatment by topically administering to the pharynx and esophagus of the mammal a therapeutically effective amount of bethanechol and an absorption enhancer to facilitate esophageal peristalsis so that the undesirable side effect, particularly the parasympathetic nervous system side effect, is reduced while maintaining the therapeutic esophageal peristaltic effect. A further exemplary method comprises delivering an amount of bethanechol of between about 3 mg and about 15 mg. A further exemplary method comprises introducing about ten 0.1 ml sprays comprising 5 mg bethanechol per ml and an absorption enhancer. Of the total 5 mg introduced, it is expected about 25 percent of the bethanechol, or about 1.25 mg, is adsorbed. The remaining 3.75 mg would proceed into the stomach and intestines, and, at about a 22 percent absorption rate would result in only about 0.8 mg bethanechol being systemically adsorbed, far below the threshold necessary to produce undesirable side effects.

acetylcholinesterase, sequence (P22303 32-614, species assumed): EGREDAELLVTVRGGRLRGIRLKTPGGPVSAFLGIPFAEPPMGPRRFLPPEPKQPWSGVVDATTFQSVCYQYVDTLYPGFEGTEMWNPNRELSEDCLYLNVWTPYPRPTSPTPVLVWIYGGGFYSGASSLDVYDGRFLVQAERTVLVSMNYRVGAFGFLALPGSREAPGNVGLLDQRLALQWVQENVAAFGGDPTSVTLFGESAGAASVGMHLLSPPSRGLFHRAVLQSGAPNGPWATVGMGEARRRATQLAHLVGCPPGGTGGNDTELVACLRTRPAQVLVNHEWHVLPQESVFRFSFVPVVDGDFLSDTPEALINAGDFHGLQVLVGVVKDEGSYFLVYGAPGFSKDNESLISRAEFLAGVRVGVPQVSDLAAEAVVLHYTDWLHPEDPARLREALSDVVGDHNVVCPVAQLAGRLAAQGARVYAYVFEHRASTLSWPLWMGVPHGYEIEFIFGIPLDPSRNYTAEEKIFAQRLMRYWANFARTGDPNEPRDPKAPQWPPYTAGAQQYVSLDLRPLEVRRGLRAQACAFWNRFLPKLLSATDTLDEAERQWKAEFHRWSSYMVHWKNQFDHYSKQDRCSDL

CC(C[N+](C)(C)C)OC(N)=O (centres unmarked) [bethanechol, 2-carbamoyloxpropyl-trimethyl-ammonium chloride]
receptor selectivity (muscarinic M2 receptors): directly and selectively on the muscarinic M2 receptors | systemic level of bethanechol [1]: about 11 mg | undesirable side effects when provided systemically [2]: diarrhea, flushing, increased sweating, nausea, stomach pain, or gas, and, importantly, urinary urgency | inactivation by acetylcholinesterase (acetylcholinesterase): not inactivated by acetylcholinesterase | fraction absorbed in the stomach and intestines ([3]; 50 mg oral dosage, "is believed"): about 22% | absorption by the mucosal lining of the gastrointestinal tract ([3]; in vivo): poorly absorbed | effect on esophageal motility [4]: improve esophageal motility | stability and water solubility [5]: stable, water-soluble | bethanechol systemically adsorbed from the remaining 3.75 mg ([6]; remaining 3.75 mg in stomach and intestines at about 22 percent absorption rate): about 0.8 mg | fraction of bethanechol adsorbed from the spray ([6]; ten 0.1 ml sprays, 5 mg bethanechol per ml with absorption enhancer, total 5 mg): about 25% | amount of bethanechol adsorbed from the spray ([6]; ten 0.1 ml sprays, total 5 mg): about 1.25 mg
